Measurements taken from US20120252853A1, “Positive allosteric modulators of nicotinic acetylcholine receptor” (H. Lundbeck A/S, priority 2011, published 2012).

Assays:
human KCNQ2 = biological target: T1, human KCNQ2 (Homo sapiens, UniProt O43526); test: 86Rb flux in KCNQ2 expressing cells; assay type: cell-based; details: KCNQ2 opening; for EC50: 86Rb efflux, CHO-K1 cells stably transfected with human KCNQ2; for Emax: Max effect determined in % of the effect of 30 mM KCl
T1 construct: expressed in transfected cells
Experimental: Chinese hamster ovary cells (CHO-K1) were stably transfected with human KCNQ2 inserted into the pCl-neo vector (Promega). Cells were plated at 2×10^5 cells/ml in 96-well plates in 100 μl media (MEM Alpha media, 10% FBS, 1% P/S, 1% L-Glu, and 1 mg/ml G418). At the time of plating the cells were furthermore loaded with 1 μCi/ml 86Rb over-night. On the subsequent day, the cells were washed with 3×50 μl assay buffer (HBSS+10 mM HEPES, pH 7.4) and incubated in 50 μl buffer with retigabine for 30 minutes at 37° C. Following this preincubation, the cell membrane was depolarized for 30 minutes at 37° C. with 15 mM KCl (final concentration) in assay buffer supplemented with the appropriate amount of compound to maintain drug concentration. The supernatant was removed and placed in pony-vials with 0.5 ml scintillation liquid and counted. The dose-dependent effect of the investigated compounds on the efflux of 86Rb through the hKCNQ2 channels were calculated according to the four parameter logistic equation: Y=Bottom+(Top-Bottom)/(1+10̂((LogEC50-X)*HillSlope)), where X is the logarithm of concentration, Y is the response, and HillSlope is the hill coefficient.
A representative selection of compounds of the invention were tested in the assay in addition to 6 comparative examples wherein 0 has been substituted with a 6-membered ring comprising up to two N atoms. Comparative 1-4 has been disclosed in WO 2009/127678 or WO 2009/127679 and comparative 5-6 are close analogues.

human α7 receptor = human α7 receptor (Homo sapiens, UniProt P36544); test: α7 NNR flux assay (FDSS Ca assay); assay type: cell-based; details: positive allosteric modulation; rat GH4C1 cell line stably expressing human α7; acetylcholine 20 μM; % modulation relative to PNU-120596 set to 100%
Experimental: In this version of the assay, the human α7 receptor is stably expressed in the rat GH4C1 cell line. The assay was used to identify positive allosteric modulators (PAMs) of the α7 receptor. Activation of the channel was measured by loading cells with the calcium-sensitive fluorescent dye Calcium-4 (Assay kit from Molecular Devices), and then measuring real-time changes in fluorescence upon treatment with test compounds.
The cell line ChanClone GH4C1-nAChRalpha7 from Genionics was seeded from frozen stock in 384-well plates in culture media 2-3 days before experiment to form an approximately 80% confluent layer on the day of experiment.
The cell culture were split into “22.5 cm×22.5 cm”-plates with approximately 100×10^3 cells/cm^2. After four days incubation in a humidified incubator at 37° C. and 5% CO2, it had grown to an 80-90% confluent layer, and the cells were harvested.
Two or three days before the experiment the cells were seeded in 384 well plates from Greiner bio-one (781946, CELLCOAT, Poly-D-Lysine, black, μClear).
The cells were seeded in 384 well plates with 30 μL/well (30000 cells/well) while stirring the cell suspension or otherwise preventing the cells from precipitating. The plates were incubated at room temperature for 30-45 minutes. The plates were placed in incubator for two days (37° C. and 5% CO2).
The loading buffer was 5% v/v Calcium-4 Kit and 2.5 mM Probenecid in assay buffer.
Culture media were removed from the cell plates and 20 μL loading buffer was added in each well. The cell plates were placed in trays and incubated 90 minutes in the incubator (37° C.). Thereafter the plates were incubated 30 minutes at room temperature, still protected from light. Now the cell plates were ready to run in the Functional Drug Screening System (FDSS) The assay buffer was HBSS with 20 mM HEPES, pH 7.4 and 3 mM CaCl2.
200 nL 10 mM compound solution in DMSO was diluted in 50 μL assay buffer. The final test concentrations in the cell plates were 20-10-5-2.5-1.25-0.625-0.312-0.156-0.078-0.039 μM. Assay buffer and 3 μM PNU-120596 were used for control:
The agonist acetylcholine was added to a final concentration of 20 μM (˜EC100). In the FDSS7000 the Ex480-Em540 was measured with 1 second intervals. The baseline was made of 5 frames before addition of test compounds, and 95 frames more were made before addition of acetylcholine. The measurement stopped 30 frames after the 2nd addition. Raw data for each well were collected as “the maximum fluorescence count” in the interval 100-131 seconds and as “the average fluorescence count” in the interval 96-100 seconds. The positive allosteric modulation in the 2nd addition was the enhancement of agonist response with test compound compared to agonist alone.
Results were calculated as % modulation of test compound compared to the reference PNU-120596 set to 100%.

Sequence of human α7 receptor (P36544 23-502): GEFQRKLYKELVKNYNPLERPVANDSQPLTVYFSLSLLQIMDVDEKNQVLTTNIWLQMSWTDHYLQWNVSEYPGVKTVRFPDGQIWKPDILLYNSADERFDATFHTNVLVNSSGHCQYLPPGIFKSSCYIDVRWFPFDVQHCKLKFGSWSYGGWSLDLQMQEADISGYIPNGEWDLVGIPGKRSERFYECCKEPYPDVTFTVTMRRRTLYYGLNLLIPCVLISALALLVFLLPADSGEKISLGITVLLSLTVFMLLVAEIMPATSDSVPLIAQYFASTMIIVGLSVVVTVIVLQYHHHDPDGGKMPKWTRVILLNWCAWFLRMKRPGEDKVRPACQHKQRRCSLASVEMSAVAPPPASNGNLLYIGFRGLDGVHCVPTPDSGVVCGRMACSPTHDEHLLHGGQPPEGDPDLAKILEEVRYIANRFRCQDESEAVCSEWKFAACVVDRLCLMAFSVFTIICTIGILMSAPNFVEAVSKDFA

SMILES | EC50 (human KCNQ2) | Emax (human KCNQ2) | EC50 (human α7 receptor)
O=C(NCc1ccc2[nH]c(C(F)(F)F)cc2c1)c1ccno1 [Compound 31, N-[[2-(trifluoromethyl)-1H-indol-5-yl]methyl]isoxazole-5-carboxamide] | > 50 µM | 4.8% | 
Cc1cc2cc(CNC(=O)c3ccn(CCF)n3)ccc2[nH]1 [Compound 94, 1-(2-fluoroethyl)-N-[(2-methyl-1H-indol-5-yl)methyl]pyrazole-3-carboxamide] |  |  | 9.5 µM
COCCn1ccc(C(=O)NCc2ccc3[nH]c(C)cc3c2)n1 [Compound 95, 1-(2-methoxyethyl)-N-[(2-methyl-1H-indol-5-yl)methyl]pyrazole-3-carboxamide] |  |  | 7.7 µM
COCc1cc(C(=O)NCc2ccc3[nH]c(C)cc3c2)on1 [Compound 98, 3-(methoxymethyl)-N-[(2-methyl-1H-indol-5-yl)methyl]isoxazole-5-carboxamide] |  |  | 3.5 µM
Cc1cc2cc(CNC(=O)c3cnn(CCF)c3)ccc2[nH]1 [Compound 99, 1-(2-fluoroethyl)-N-[(2-methyl-1H-indol-5-yl)methyl]pyrazole-4-carboxamide] |  |  | 6.4 µM
COCCn1cc(C(=O)NCc2ccc3[nH]c(C)cc3c2)cn1 [Compound 100, 1-(2-methoxyethyl)-N-[(2-methyl-1H-indol-5-yl)methyl]pyrazole-4-carboxamide] |  |  | 8.5 µM
Cc1[nH]c2ccc(CNC(=O)c3cnn(CC(F)(F)F)c3)cc2c1C [Compound 101, N-[(2,3-dimethyl-1H-indol-5-yl)methyl]-1-(2,2,2-trifluoroethyl)pyrazole-4-carboxamide] |  |  | 2.9 µM
Cc1cc(C(=O)N[C@H](C)c2cc3cc(C)[nH]c3cc2F)on1 [Compound 102, N-[(1R)-1-(6-fluoro-2-methyl-1H-indol-5-yl)ethyl]-3-methyl-isoxazole-5-carboxamide] |  |  | 1 µM
Cc1cc(C(=O)N[C@H](C)c2cc3cc[nH]c3c(C)c2F)on1 [Compound 103] |  |  | 0.33 µM
Cc1cc(C(=O)NCc2cc3cc(C)[nH]c3cc2F)on1 [Compound 104, N-[(6-fluoro-2-methyl-1H-indol-5-yl)methyl]-3-methyl-isoxazole-5-carboxamide] |  |  | 4.2 µM
Cc1cc(C(=O)NCc2cc3cc[nH]c3c(C)c2F)on1 [Compound 105, N-[(6-fluoro-7-methyl-1H-indol-5-yl)methyl]-3-methyl-isoxazole-5-carboxamide] |  |  | 2.9 µM
Cc1cc2cc(CNC(=O)c3cc(CCF)no3)ccc2[nH]1 [Compound 106, 3-(2-fluoroethyl)-N-[(2-methyl-1H-indol-5-yl)methyl]isoxazole-5-carboxamide] |  |  | 1.7 µM
Cc1cc(C(=O)NCc2ccc3[nH]c(C)cc3c2)sn1 [Compound 107, 3-methyl-N-[(2-methyl-1H-indol-5-yl)methyl]isothiazole-5-carboxamide] |  |  | 0.56 µM
Cc1cc(C(=O)NCc2ccc3[nH]c(CC(F)(F)F)cc3c2)on1 [Compound 108, 3-methyl-N-[[2-(2,2,2-trifluoroethyl)-1H-indol-5-yl]methyl]isoxazole-5-carboxamide] |  |  | 7.7 µM
Cc1cc(C(=O)NCc2cc(F)c3[nH]c(C)cc3c2)on1 [Compound 109, N-[(7-fluoro-2-methyl-1H-indol-5-yl)methyl]-3-methyl-isoxazole-5-carboxamide] |  |  | 3.1 µM
Cc1cc(C(=O)NCc2ccc3[nH]c(C)cc3c2F)on1 [Compound 110, N-[(4-fluoro-2-methyl-1H-indol-5-yl)methyl]-3-methyl-isoxazole-5-carboxamide] |  |  | 6.5 µM
Cc1cc(C(=O)N[C@H](C)c2cc(F)c3[nH]c(C)cc3c2)on1 [Compound 111, N-[(1R)-1-(7-fluoro-2-methyl-1H-indol-5-yl)ethyl]-3-methyl-isoxazole-5-carboxamide] |  |  | 1.3 µM
COCc1cc(C(=O)N[C@H](C)c2ccc3[nH]c(C)cc3c2)on1 [Compound 112, 3-(methoxymethyl)-N-[(1R)-1-(2-methyl-1H-indol-5-yl)ethyl]isoxazole-5-carboxamide] |  |  | 1.1 µM
Cc1cc2cc([C@@H](C)NC(=O)c3cc(CCF)no3)ccc2[nH]1 [Compound 113, 3-(2-fluoroethyl)-N-[(1R)-1-(2-methyl-1H-indol-5-yl)ethyl]isoxazole-5-carboxamide] |  |  | 0.79 µM
COCc1cc(C(=O)NCc2ccc3[nH]c(C(F)(F)F)cc3c2)on1 [Compound 114, 3-(methoxymethyl)-N-[[2-(trifluoromethyl)-1H-indol-5-yl]methyl]isoxazole-5-carboxamide] |  |  | 5 µM
O=C(NCc1ccc2[nH]ccc2c1)c1cc(CCF)no1 [Compound 115, 3-(2-fluoroethyl)-N-(1H-indol-5-ylmethyl)isoxazole-5-carboxamide] |  |  | 4.3 µM
Cc1cc2cc(CNC(=O)c3ncc(C)o3)ccc2[nH]1 [Compound 116, 5-methyl-N-[(2-methyl-1H-indol-5-yl)methyl]oxazole-2-carboxamide] |  |  | 9.9 µM
Cc1cc2cc(CNC(=O)c3cnn4c3CCC4)ccc2[nH]1 [Compound 117, N-[(2-methyl-1H-indol-5-yl)methyl]-5,6-dihydro-4H-pyrrolo[1,2-b]pyrazole-3-carboxamide] |  |  | 7 µM
Cc1cc2cc(CNC(=O)c3cc4n(n3)CCC4)ccc2[nH]1 [Compound 118, N-[(2-methyl-1H-indol-5-yl)methyl]-5,5-dihydro-4H-pyrrolo[1,2-b]pyrazole-2-carboxamide] |  |  | 7.2 µM
Cc1noc(C(=O)NCc2ccc3[nH]c(C)cc3c2)n1 [Compound 119, 3-methyl-N-[(2-methyl-1H-indol-5-yl)methyl]-1,2,4-oxadiazole-5-carboxamide] |  |  | 7.1 µM
Cc1cc(C(=O)NCc2ccc3[nH]c(C#N)cc3c2)sn1 [Compound 120, N-[(2-cyano-1H-indol-5-yl)-methyl]-3-methyl-isothiazole-5-carboxamide] |  |  | 3.3 µM
Cc1cc(C(=O)N[C@H](C)c2ccc3[nH]c(C#N)cc3c2)on1 [Compound 121, N-[(1R)-1-(2-cyano-1H-indol-5-yl)ethyl]-3-methyl-isoxazole-5-carboxamide] |  |  | 4.8 µM
O=C(NCc1ccc2[nH]c(C(F)(F)F)cc2c1)c1ncc(C(F)(F)F)cn1 [Compound C1, 5-Trifluoromethyl-pyrimidine-2-carboxylic acid (2-trifluoromethyl-1H-indol-5-ylmethyl)amide, reference compound] | > 50 µM | 34% | 
O=C(NCc1ccc2[nH]c(C(F)(F)F)cc2c1)c1ccc(-c2ccccc2)nc1 [Compound C2, 6-Phenyl-N-(2-trifluoromethyl-1H-indol-5-ylmethyl)-nicotinamide, reference compound] | > 50 µM | 31% | 
O=C(NCc1ccc2[nH]c(C(F)(F)F)cc2c1)c1ccc(C(F)(F)F)nc1 [Compound C3, 6-Trifluoromethyl-N-(2-trifluoromethyl-1H-indol-5-ylmethyl)-nicotinamide, reference compound] | 17 µM | 46% | 
